Test results published in patent US11318157B2, “6-6 bicyclic aromatic ring substituted nucleoside analogues for use as PRMT5 inhibitors” (Janssen Pharmaceutica NV, priority 2015, dated 2022).
Read-outs that look alike come from different tables or passages of the source.

Legend:
PRMT5-MEP50 enzyme [1] = target: T1, PRMT5-MEP50 enzyme (Homo sapiens, UniProt O14744); experiment: In vitro assay 1a: high throughput mass spectrometer assay of SAH formation, 10 nM enzyme, 60 min; type: biochemical; conditions: averaged values, PRMT5-MEP50, 10 nM enzyme
T1 construct: One virus expresses full length human PRMT5 with Flag-tag at N-terminus; Flag (N); purchased Charles River (Argenta); host or cells: insect cells (Sf9), baculovirus co-infection
Text: Experimental Procedures In Vitro Assay (Assay 1a and 1b)
PRMT5-MEP50 enzyme was purchased from Charles River (Argenta). The enzyme complex was produced in insect cells (Sf9) infected simultaneously with two baculoviruses. One virus expresses full length human PRMT5 with Flag-tag at N-terminus, the second virus expresses full length MEP50 with His6-TEV cleavage at N-terminus. The protein was affinity purified using anti-Flag (M2) beads eluted with 3×FLAG peptide, followed by His-Select eluted with 0.5M imidazole. Eluted protein was then dialysed against tris-buffered saline (TBS) (pH 8.0) containing 20% glycerol and 3 mM dithiothreitol (DTT).
Full-length untagged human recombinant histone H2A (residues 1-130, Genbank Accession #NM_021052 MW=14.1 kDa) expressed in E. coli was purchased from Reaction Biology Corporation, Cat #HMT-11-146. Reagents used for making reaction buffer or stopping reaction were purchased including Tris base (Sigma Cat #T-1503), NaCl (Sigma Cat #RGF-3270), MgCl2 (Sigma Cat #M0250), DTTI (Invitrogen Cat #15508-013) and Formic Acid (Riedel deHaen, Cat #33015)
High Throughput Mass Spectrometer Assay
PRMT5 catalyzes the sequential methylations of the terminal nitrogen atoms on the guanidine groups of arginine residues within proteins using co-substrate S-adenosyl-L-methionine (AdoMet, SAM), forming mono-methyl (MMA), symmetric-dimethyl arginine (sDMA) and S-adenosyl-L-homocysteine (AdoHcy, SAH). The enzyme activity was determined by following the product SAH formation using high throughput mass spectrometry (Agilent Rapidfire 300 System coupled to a Sciex 4000 series QTrap® triple-quad MS/MS). The reaction buffer was 20 mM Tris-HCl, pH 8.5, 50 mM NaCl, 5 mM MgCl2 and 1 mM DTT. The reaction activity was stopped using 1% formic acid (final concentration).
The IC50 Studies were performed using eleven point dosing series made for each compound by serially diluted 1:2 in dimethyl sulfoxide (DMSO), with point 12 being a DMSO control. Compounds were first spotted to plates, and followed by addition of 2 μM SAM and 0.6 μM H2A (histone H2A) solution mixture. The same volume of enzyme solution was added to initiate the enzymatic reactions. The final concentrations of the reaction are at 1 μM SAM, 0.3 μM H2A and 10 nM enzyme (assay 1a) or 1.25 nM enzyme (assay 1b). The reaction was incubated at 30° C. for 60 minutes (min) when 10 nM enzyme was used and for 120 min when 1.25 nM enzyme was used. Subsequently, the reaction was quenched by addition of formic acid to a final concentration of 1%. The inhibitions of SAH formation in the presence of compounds were calculated as a percentage of the control relative to the uninhibited reaction as a function of inhibitor concentration. The data were fit as follows: Y=Bottom+(Top−Bottom)/(1+10^((log IC50−X)*h))
where IC50 is the inhibitor concentration (same unit as X) at 50% inhibition and h is the Hill slope. Y is percent of inhibition, X is log of compound concentration. Bottom and Top are the plateaus in same units as Y.

[2] = test system: nuclear symmetric Arginine dimethylation in A549 cells; experiment: PD assay (assay 2): inhibition of nuclear symmetric Arginine dimethylation (SYM10 immunohistochemistry), 48 h; type: cell-based; conditions: for IC50: Homo sapiens
In short: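 Cells seeded at 400/well overnight, then treated 48 h at 37 °C, final DMSO 0.2%. Fixed and stained with SYM10 antibody plus Alexa 488 secondary, Hoechst and CellMask, then imaged on Opera. Normalized to DMSO (high) and 10 μM reference compound (low); averaged pIC50 reported.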

PRMT5-MEP50 enzyme [3] = target: T1, PRMT5-MEP50 enzyme; experiment: In vitro assay 1b: high throughput mass spectrometer assay of SAH formation, 1.25 nM enzyme, 120 min; type: biochemical
In short: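 Flag-PRMT5/His-MEP50 complex from Sf9 cells, with 1 μM SAM and 0.3 μM full-length histone H2A in pH 8.5 Tris buffer, at 30 °C; 10 nM enzyme for 60 min (1a) or 1.25 nM for 120 min (1b). Formic acid-quenched SAH read by RapidFire MS/MS; 11-point IC50 with Hill fit.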

[4] = read-out: pIC50 Assay 1a (converted)
[5] = A549, averaged values, PD assay, A549 cells, symmetric Arginine dimethylation, read-out: pIC50 Assay 2 (converted)
[6] = averaged values, PRMT5-MEP50, 1.25 nM enzyme, 120 min, read-out: pIC50 Assay 1b (converted)

T1 sequence (O14744 whole entry): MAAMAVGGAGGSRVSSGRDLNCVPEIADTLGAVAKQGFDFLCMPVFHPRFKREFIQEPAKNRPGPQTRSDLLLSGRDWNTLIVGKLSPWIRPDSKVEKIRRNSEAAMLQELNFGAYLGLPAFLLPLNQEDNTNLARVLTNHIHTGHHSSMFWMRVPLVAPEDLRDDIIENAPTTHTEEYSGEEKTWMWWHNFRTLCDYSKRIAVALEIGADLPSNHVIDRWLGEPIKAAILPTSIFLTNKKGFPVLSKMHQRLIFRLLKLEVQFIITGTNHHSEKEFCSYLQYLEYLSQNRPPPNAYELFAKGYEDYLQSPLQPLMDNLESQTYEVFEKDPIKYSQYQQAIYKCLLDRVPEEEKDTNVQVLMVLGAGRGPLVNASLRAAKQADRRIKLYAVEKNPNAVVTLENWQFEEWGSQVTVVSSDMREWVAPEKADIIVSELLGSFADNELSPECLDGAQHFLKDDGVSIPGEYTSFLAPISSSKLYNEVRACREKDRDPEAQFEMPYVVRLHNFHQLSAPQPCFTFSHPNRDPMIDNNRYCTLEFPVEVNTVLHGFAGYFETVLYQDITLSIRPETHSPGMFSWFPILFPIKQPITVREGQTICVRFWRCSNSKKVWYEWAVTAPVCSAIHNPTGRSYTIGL
T1 sequence (Q9BQA1 whole entry partner): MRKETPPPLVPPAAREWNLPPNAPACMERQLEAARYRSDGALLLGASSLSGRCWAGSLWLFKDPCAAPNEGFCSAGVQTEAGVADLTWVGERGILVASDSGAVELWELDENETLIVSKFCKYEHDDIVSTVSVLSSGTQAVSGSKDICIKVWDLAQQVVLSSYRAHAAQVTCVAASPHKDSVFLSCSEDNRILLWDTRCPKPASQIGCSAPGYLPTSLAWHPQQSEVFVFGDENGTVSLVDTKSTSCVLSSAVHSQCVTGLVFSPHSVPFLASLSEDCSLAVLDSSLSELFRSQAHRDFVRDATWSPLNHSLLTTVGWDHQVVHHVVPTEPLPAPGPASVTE

Row | Compound | IC50 (PRMT5-MEP50 enzyme [1]; [4]) [nM] | IC50 [2, 5] [nM] | IC50 (PRMT5-MEP50 enzyme [3]; [6]) [nM] | pIC50 Assay 2 ([2]; averaged values, PD assay, A549 cells, symmetric Arginine dimethylation) | pIC50 Assay 1b (PRMT5-MEP50 enzyme [3]; averaged values, PRMT5-MEP50, 1.25 nM enzyme, 120 min) | IC50 (PRMT5-MEP50 enzyme [1]; pIC50 Assay 1a) [nM] | IC50 (PRMT5-MEP50 enzyme [3]) [nM] | IC50 ([2]; A549, read-out: pIC50 Assay 2 (converted)) [nM]
1 | CN(C[C@H]1O[C@@H](n2ccc3c(N)ncnc32)[C@H](O)[C@@H]1O)c1ccc2cc(Br)cnc2c1 [Compound 52] | 63.1 | 398 | 158 | – | – | – | – | –
2 | Cc1nc(N)c2ccn([C@@H]3O[C@H](CNc4ccc5cc(Br)cnc5c4)[C@@H](O)[C@H]3O)c2n1 [Compound 53] | 39.8 | 50.1 | 50.1 | – | – | – | – | –
3 | Nc1ncnc2c1ccn2[C@@H]1C[C@H](CNc2ccc3cc(Br)cnc3c2)[C@@H](O)[C@H]1O [Compound 54] | 15.8 | 31.6 | 15.8 | – | – | – | – | –
4 | Nc1ncnc2c1ccn2[C@@H]1C[C@H](CNc2ccc3cc(Br)cnc3c2)[C@@H](O)[C@H]1O [Compound 54a] | 7.94 | – | – | 7.4 | 7.8 | – | – | –
5 | Nc1ncnc2c1ccn2[C@@H]1C[C@H](/C=C/c2ccc3cccnc3c2)[C@@H](O)[C@H]1O [Compound 55] | – | ~51.3 | – | – | – | 7.94 | 31.6 | –
6 | Nc1ncnc2c1ccn2[C@@H]1C[C@H](CCc2ccc3cccnc3c2)[C@@H](O)[C@H]1O [Compound 56] | 6.31 | – | 15.8 | – | – | – | – | 7.94
7 | Nc1ncnc2c1ccn2[C@@H]1O[C@H](/C=C/c2ccc3cc(Cl)cnc3c2)[C@@H](O)[C@H]1O [Compound 57a] | 31.6 | 63.1 | 50.1 | – | – | – | – | –
8 | Nc1ncnc2c1ccn2[C@@H]1C[C@H](CCc2ccc3cc(Cl)cnc3c2)[C@@H](O)[C@H]1O [Compound 58] | 12.6 | 39.8 | 20 | – | – | – | – | –
9 | Nc1ncnc2c1ccn2[C@@H]1O[C@H](CCc2ccc3cc(Cl)cnc3c2)[C@@H](O)[C@H]1O [Compound 59] | 25.1 | 126 | 79.4 | – | – | – | – | –
10 | Nc1ncnn2c([C@@H]3O[C@H](COc4ccc5cccnc5c4)[C@@H](O)[C@H]3O)ccc12 [Compound 60] | 251 | 1260 | 398 | – | – | – | – | –
11 | Nc1ncnn2c([C@@H]3O[C@H](/C=C/c4ccc5cccnc5c4)[C@@H](O)[C@H]3O)ccc12 [Compound 61] | 398 | ~1320 | 1000 | – | – | – | – | –
12 | Nc1ncnn2c([C@@H]3O[C@H](CCc4ccc5cccnc5c4)[C@@H](O)[C@H]3O)ccc12 [Compound 62] | 631 | 1580 | 794 | – | – | – | – | –
13 | Nc1ncnc2c1ccn2[C@@H]1O[C@H](C#Cc2ccc3cccnc3c2)[C@@H](O)[C@H]1O [Compound 63] | 25.1 | 200 | 126 | – | – | – | – | –
14 | Nc1ncnc2c1ccn2[C@@H]1C[C@H](OCc2ccc3cccnc3c2)[C@@H](O)[C@H]1O [Compound 64] | – | ~1070 | – | – | – | 126 | 794 | –
15 | Nc1ncnc2c1ccn2[C@@H]1C[C@H](OCc2ccc3ncccc3c2)[C@@H](O)[C@H]1O [Compound 65] | 3160 | 15800 | 1000 | – | – | – | – | –
16 | Nc1ncnc2c1ccn2[C@@H]1C[C@H](Cc2ccc3cccnc3c2)[C@@H](O)[C@H]1O [Compound 66] | 2000 | > 20000 | 5010 | – | – | – | – | –
17 | Nc1ncnc2c1ccn2[C@@H]1O[C@H](COc2ccc3ccnnc3c2)[C@@H](O)[C@H]1O [Compound 69] | 631 | > 20000 | 3160 | – | – | – | – | –
18 | N#Cc1ccc2ccc(OC[C@H]3O[C@@H](n4ccc5c(N)ncnc54)[C@H](O)[C@@H]3O)cc2n1 [Compound 70] | 631 | 6310 | 1580 | – | – | – | – | –
19 | COc1ncnc2c1ccn2[C@@H]1O[C@H](COc2ccc3cc(Br)cnc3c2)[C@@H](O)[C@H]1O [Compound 71] | 3160 | 10000 | 2000 | – | – | – | – | –
20 | CC(C)C(=O)O[C@@H]1[C@H](OC(=O)C(C)C)[C@@H](COc2ccc3ccc(C(F)(F)F)nc3c2)O[C@H]1n1ccc2c(N)ncnc21 [Compound 72] | > 10000 | > 10000 | > 100000 | – | – | – | – | –
21 | CC(C)C(=O)O[C@@H]1[C@H](OC(=O)C(C)C)[C@@H](COc2ccc3cc(Br)cnc3c2)O[C@H]1n1ccc2c(N)ncnc21 [Compound 73] | > 10000 | 100 | > 100000 | – | – | – | – | –

Second part, led by results:

Row | IC50 (PRMT5-MEP50 enzyme [1]; [4]) [nM] | IC50 [2, 5] [nM] | IC50 (PRMT5-MEP50 enzyme [3]; [6]) [nM] | pIC50 Assay 2 ([2]; averaged values, PD assay, A549 cells, symmetric Arginine dimethylation) | pIC50 Assay 1b (PRMT5-MEP50 enzyme [3]; averaged values, PRMT5-MEP50, 1.25 nM enzyme, 120 min) | Compound | IC50 (PRMT5-MEP50 enzyme [1]; pIC50 Assay 1a) [nM] | IC50 (PRMT5-MEP50 enzyme [3]) [nM] | IC50 ([2]; A549, read-out: pIC50 Assay 2 (converted)) [nM]
22 | 0.251 | 1.58 | 0.501 | – | – | Nc1ncnc2c1ccn2[C@@H]1C[C@H](CCc2ccc3ccc(NCC(F)F)nc3c2)[C@@H](O)[C@H]1O [Compound 75] | – | – | –
23 | 200 | 1260 | 501 | – | – | Cc1cn([C@@H]2O[C@H](COc3ccc4cccnc4c3)[C@@H](O)[C@H]2O)c2ncnc(N)c12 [Compound 82] | – | – | –
24 | 39.8 | 200 | 126 | – | – | Cc1cc2c(N)ncnc2n1[C@@H]1O[C@H](COc2ccc3cccnc3c2)[C@@H](O)[C@H]1O [Compound 83] | – | – | –
25 | 15.8 | 200 | 79.4 | – | – | Nc1ncnc2c1ccn2[C@@H]1O[C@H](COc2ccc3cc(C4CC4)cnc3c2)[C@@H](O)[C@H]1O [Compound 84] | – | – | –
26 | > 10000 | 12600 | 7940 | – | – | Nc1ncnc2c1ccn2[C@@H]1C[C@H](OCc2ccc3cnccc3c2)[C@@H](O)[C@H]1O [Compound 85] | – | – | –
27 | 2510 | 5010 | 1000 | – | – | CN(C[C@H]1O[C@@H](n2ccc3c(Cl)ncnc32)[C@H](O)[C@@H]1O)c1ccc2cc(Br)cnc2c1 [Compound 86] | – | – | –
28 | 501 | 1580 | 1000 | – | – | COc1ncnc2c1ccn2[C@@H]1O[C@H](CNc2ccc3cc(Br)cnc3c2)[C@@H](O)[C@H]1O [Compound 87] | – | – | –
29 | > 10000 | > 10000 | 7940 | – | – | COc1ncnc2c1ccn2[C@@H]1O[C@H](CN(C)c2ccc3cc(Br)cnc3c2)[C@@H](O)[C@H]1O [Compound 88] | – | – | –
30 | > 10000 | 63.1 | 31600 | – | – | CC(C)C(=O)O[C@@H]1[C@H](OC(=O)C(C)C)[C@@H](COc2ccc3cccnc3c2)O[C@H]1n1ccc2c(N)ncnc21 [Compound 89] | – | – | –
31 | 100 | > 10000 | 631 | – | – | Nc1ncnc2c1ccn2[C@@H]1C[C@H](Cc2ccc3ccccc3c2)[C@@H](O)[C@H]1O [Compound 90] | – | – | –
32 | 126 | 398 | 501 | – | – | Nc1ncnc2c1ccn2[C@@H]1O[C@H](COc2cc3ncccc3cc2Cl)[C@@H](O)[C@H]1O [Compound 91] | – | – | –
33 | 316 | > 10000 | 501 | – | – | Nc1ncnc2c1ccn2[C@@H]1C[C@H](Cc2ccc3ccncc3c2)[C@@H](O)[C@H]1O [Compound 95] | – | – | –
34 | 200 | 200 | 501 | – | – | Nc1ncnc2c1ccn2[C@@H]1O[C@H](COc2cc3ncc(Br)cc3cc2C(F)(F)F)[C@@H](O)[C@H]1O [Compound 96] | – | – | –
35 | > 10000 | > 10000 | 15800 | – | – | CN(C)Cc1ccc2ccc(OC[C@H]3O[C@@H](n4ccc5c(N)ncnc54)[C@H](O)[C@@H]3O)cc2n1 [Compound 97] | – | – | –
